Source: patent US20260315609A1, “MIXED VASOPRESSIN RECEPTOR AGONIST-ANTAGONIST FOR TREATING END-STAGE LIVER DISEASE AND COMPLICATIONS ASSOCIATED THEREOF” (FERRING B.V., priority 2022, published 2026)
Starred links: 1 amine or outer side, 2 acyl side, 3 side chain; linkers in the order of their positions; H or OH if unused. Positions of bridges follow the written chain, without caps; N, C: chain ends. Non-standard residues stand in square brackets, D forms with d. Residues, ends and D or L forms follow the SMILES beside them. Chains are numbered I, II in the order given. *: point of attachment. isoGln = NC(=O)[C@H](CCC(=O)[*:2])N[*:1]; εLys = N[C@@H](CCCCN[*:1])C(=O)[*:2]; Dab = NCC[C@H](N)C(=O)O; PhAc = O=C(Cc1ccccc1)*

Columns and labels:
[1] = system: vasopressin V1a receptor; test: Pharmacodynamics (blood pressure, MAP, pulse rate, peripheral blood flow, cardiac output, urine volume) in healthy subjects; type: in vivo, human
Method: In some embodiments, MAP is calculated from measurements of systolic blood pressure and diastolic blood pressure. In some embodiments, MAP is calculated when taking into account the pressure during a single cardiac cycle. In some embodiments, MAP is ⅓ (systolic blood pressure−diastolic blood pressure)+diastolic blood pressure.
In some instances, endpoints of the study were: vital signs (e.g., supine blood pressure, pulse, and body temperature), electrocardiogram (ECG) (e.g., intervals, rhythm, and morphology), cardiac function (e.g., cardiac output using echocardiography), peripheral blood flow/tissue perfusion (e.g., by skin color), venous blood gases (e.g., lactate), urinary output, clinical chemistry, hematology, hemostasis, and urinalysis, adverse events (AEs) (e.g., type, frequency, and intensity), pharmacokinetics (e.g., AUC, AUCt, AUCτ, % Extrap AUC, Cmax, tmax, CL, Vz, t1/2, MRT, Vss, F, Ae, and CLR), and metabolite pattern in plasma and urine.

[2] = system: CCl4-induced rat model of cirrhosis and ascites; test: CCl4-induced cirrhosis and ascites rats, cohort 3 (single IV bolus), hemodynamics and serum aldosterone; type: in vivo; settings: 100 μg/kg IV
Method: Animals: 90 male Wistar rats (Charles River Laboratories, Espana S.A) weighing 200-220 grams at the time of receipt were subjected to a cirrhosis induction program; high dose CCl4 was administered by inhalation twice weekly (Monday and Friday) and phenobarbital (0.3 g/L) was added to drinking water. In some instances, liver damage in this model is caused by hepatotoxic CCl4 metabolites produced in the liver. In some instances, phenobarbital induction of the microsomal enzyme oxidizing system exaggerates the intensity of the hepatic necrosis. […] Animals were allowed free access to food and water throughout the study.
The study consisted of 3 treatment cohorts, as detailed in Table 10. Animals developing and maintaining ascites for 2 weeks were randomly assigned to treatment groups. Ringer Braun saline solution was used as vehicle. IV bolus were administered via femoral veins.
Cohort 3: Animals were anesthetized and the left femoral artery and vein catheterized. The femoral artery catheter was connected to a transducer for mean arterial pressure (MAP) measurements. The right jugular vein was isolated and a catheter placed in the right atrium; a thermocouple was advanced through the aortic arch via left carotid approach to monitor the intraarterial temperature and cardiac output (CO). MAP and CO were measured and recorded in a multichannel system (Powerlab). CO was measured by thermodilution following the administration of a 200 μL/animal bolus of Ringer solution (20-23° C.) into the right atrium using a spring-loaded Hamilton syringe. A midline abdominal incision (2 cm) was created and the portal vein cannulated through the ileocolic vein to measure portal pressure (PP). Constant infusion (2 mL/hr) of Ringer solution was given through the femoral vein. After 30 minutes of infusion, baseline 30 minute values for PP, MAP, CO, and systemic vascular resistance (SVR) were recorded. In the middle of the 30 minute data collection, a blood sample (0.8 mL) was obtained via the femoral artery catheter for serum aldosterone measurements. […] Five 30 minute data collections were recorded for PP, MAP, CO, and SVR over 150 minutes, with blood samples collected in the middle of each 30 minute data collection. Following blood sampling, packed cells were reconstituted with Ringer solution and reinjected over a period of 3 minutes.

CC[C@H](C)[C@@H]1NC(=O)[C@H](Cc2ccccc2)NC(=O)[C@@H](N)CSSC[C@@H](C(=O)N2CCC[C@H]2C(=O)N[C@@H](CCNC(=O)[C@@H](N)CCCCNC(=O)[C@H](CCCCNC(C)=O)NC(=O)CC[C@H](NC(=O)[C@H](CCCNC(=N)N)NC(=O)[C@@H]2CCCN2C(=O)[C@H](C)NC(=O)[C@H](CC(N)=O)NC(=O)[C@H](CCC(N)=O)NC(=O)[C@H](Cc2ccccc2)NC(=O)[C@@H](Cc2ccc(OC)cc2)NC(=O)Cc2ccccc2)C(N)=O)C(=O)NCC(N)=O)NC(=O)[C@H](CC(N)=O)NC(=O)[C@H](CCC(N)=O)NC1=O [Compound 1, Glycinamide, L-cysteinyl-L-phenylalanyl-L-isoleucyl-L-glutaminyl-L-asparaginyl-L-cysteinyl-L-prolyl-N4-(phenylacetyl-O-methyl-D-tyrosyl-L-phenylalanyl-L-glutaminyl-L-asparaginyl-L-alanyl-L-prolyl-L-arginyl-L-isoglutamyl-N5-acetyl-L-lysyl-L-ε-lysyl)-L-2,4-diaminobutyryl-, cyclic (1→6)-disulfide] (I: H-CFIQNCP[Dab]G-NH2 / II: PhAc-[dY](Me)FQNAPR[isoGln]K(Ac)[εLys]; disulfide I:1-I:6; amide I:8-II:C)
reduction in cardiac output, mean ([1]; 0.9 mg i.v., echocardiography): 3%-12 | individual decreases in cardiac output ([1]; any dose, i.v. and s.c., echocardiography): 20-25% | AE of moderate decreased cardiac output ([1]; i.v. 0.1 mg): One | subjects with hyperemia ([1]; i.v. 0.45 mg, 30 and 90 minutes): 1 subject | urinary volume ([1]; i.v. and s.c.): no apparent dose related trends or changes | cardiac output versus placebo ([1]; i.v., except 0.1 mg group): decreased | subjects with pallor ([1]; i.v., mainly 0.45, 0.6 and 0.9 mg): 18 subjects | cardiac output ([1]; s.c. 0.1 and 0.3 mg): slight reduction | subjects with pallor ([1]; s.c. 0.1 and 0.3 mg, after 1st dose): About 30% | Cardiac output - portal pressure ([2]; 0 min): 173 mL/min | Mean Arterial Pressure ([2]; 0 min): 79 mmHg | Systemic Vascular Resistance ([2]; 0 min): 0.49 mmHg * min/mL | Cardiac output - portal pressure ([2]; 30 min): 178 mL/min | Mean Arterial Pressure ([2]; 30 min): 84 mmHg | Portal Pressure ([2]; 30 min): 13.9 mmHg | Systemic Vascular Resistance ([2]; 30 min): 0.54 mmHg * min/mL | Cardiac output - portal pressure ([2]; 60 min): 177 mL/min | Mean Arterial Pressure ([2]; 60 min): 91 mmHg | Portal Pressure ([2]; 60 min): 12.8 mmHg | Systemic Vascular Resistance ([2]; 60 min): 0.54 mmHg * min/mL | Cardiac output - portal pressure ([2]; 90 min): 158 mL/min | Mean Arterial Pressure ([2]; 90 min): 98 mmHg | Portal Pressure ([2]; 90 min): 11.5 mmHg | Systemic Vascular Resistance ([2]; 90 min): 0.71 mmHg * min/mL | Cardiac output - portal pressure ([2]; 120 min): 140 mL/min | Mean Arterial Pressure ([2]; 120 min): 93 mmHg | Portal Pressure ([2]; 120 min): 10.6 mmHg | Systemic Vascular Resistance ([2]; 120 min): 0.72 mmHg * min/mL | Cardiac output - portal pressure ([2]; 150 min): 139 mL/min | Mean Arterial Pressure ([2]; 150 min): 92 mmHg | Portal Pressure ([2]; 150 min): 9.7 mmHg | Systemic Vascular Resistance ([2]; 150 min): 0.74 mmHg * min/mL | reduction in serum aldosterone ([2]; end of study): greater than 50% | Serum Aldosterone ([2]; end of study (vehicle 786)): 264 ng/dL
